PMC10418701, “Pharmacological Screening of Kv7.1 and Kv7.1/KCNE1 Activators as Potential Antiarrhythmic Drugs in the Zebrafish Heart” (International Journal of Molecular Sciences, 2023)
Blank lines part the entries; values can stand above or below the compound they belong to.

Tests used:
zebrafish Kv7.1 (KCNQ1) [1] = molecular target: T1, zebrafish Kv7.1 (KCNQ1) (Danio rerio, UniProt B0R0K2); assay: cell-based; type: cell-based
T1 construct: gene kcnq1.1
T1 sequence (B0R0K2 1-655): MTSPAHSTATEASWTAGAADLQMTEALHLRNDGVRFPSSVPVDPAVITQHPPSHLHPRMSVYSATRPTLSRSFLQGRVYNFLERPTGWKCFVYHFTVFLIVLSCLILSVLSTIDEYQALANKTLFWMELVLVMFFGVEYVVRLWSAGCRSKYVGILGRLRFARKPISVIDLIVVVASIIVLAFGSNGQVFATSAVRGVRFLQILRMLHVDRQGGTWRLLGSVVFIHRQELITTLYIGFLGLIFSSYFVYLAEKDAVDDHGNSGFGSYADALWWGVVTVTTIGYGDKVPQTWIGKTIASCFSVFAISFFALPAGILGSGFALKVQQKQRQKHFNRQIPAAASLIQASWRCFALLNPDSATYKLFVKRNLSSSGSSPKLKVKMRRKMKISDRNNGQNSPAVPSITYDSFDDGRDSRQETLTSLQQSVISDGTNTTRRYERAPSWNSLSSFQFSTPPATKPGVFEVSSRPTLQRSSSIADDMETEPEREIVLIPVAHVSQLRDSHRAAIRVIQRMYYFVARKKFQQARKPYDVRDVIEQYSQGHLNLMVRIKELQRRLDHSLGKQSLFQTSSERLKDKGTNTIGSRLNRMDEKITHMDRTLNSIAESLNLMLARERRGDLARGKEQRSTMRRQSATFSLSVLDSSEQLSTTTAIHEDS

zebrafish Kv7.1 (KCNQ1) [2] = molecular target: T1, zebrafish Kv7.1 (KCNQ1); assay: two-electrode voltage clamp, zebrafish Kv7.[…] expressed in Xenopus laevis oocytes; type: cell-based

- fold induction at 1 µM (zebrafish Kv7.1 (KCNQ1) [1]; read-out: two-electrode voltage clamp, zebrafish Kv7.1 expressed in Xenopus laevis oocytes): > 8
SMILES: COc1ccc(-c2csc(NC(=O)[C@H]3CCCCN3S(=O)(=O)c3ccc(C)cc3)n2)cc1 [ML-277]

- inhibition at 10 µM (zebrafish Kv7.1 (KCNQ1) [2]): 76%
SMILES: CCS(=O)(=O)N(C)[C@H]1c2cc(C#N)ccc2OC(C)(C)[C@@H]1O (racemic) [chromanol 293B]

- two-electrode voltage clamp, zebrafish Kv7.1 expressed in Xenopus laevis oocytes (zebrafish Kv7.1 (KCNQ1) [1]): 12.2 mV left shift of V0.5 at 20 µM
SMILES: CC/C=C\C/C=C\C/C=C\C/C=C\C/C=C\C/C=C\CCC(=O)NCC(=O)O [DHA-Gly]
